Source: patent US10689425B2, “Collagen-binding synthetic peptidoglycans, preparation, and methods of use” (Purdue Research Foundation, priority 2008, dated 2020)
One block for each molecule: values may come before it. Groups on a side chain read outwards from the residue. *: point of attachment. PDPH = heterobifunctional sulfhydryl-reactive crosslinker; Dansyl = CN(C)c1cccc2c(S(=O)(=O)*)cccc12

Tests used:
collagen [1] = assay: Microplate fluorescence binding of dansyl-labelled peptide or conjugate to immobilized collagen; conditions: collagen vs BSA and untreated wells; 100 μM to 10 nM
Experimental: Binding assays were done in a 96-well high-binding plate, black with a clear bottom (Costar). Collagen was compared to untreated wells and BSA coated wells. Collagen and BSA were immobilized at 37° C. for 1 hr by incubating 90 μL/well at concentrations of 2 mg/mL in 10 mM HCl and 1×PBS, respectively. Each well was washed 3× with 1×PBS after incubating. Z-SILY was dissolved in 1×PBS at concentrations from 100 μM to 10 nM in 10-fold dilutions. Wells were incubated for 30 min at 37° C. and rinsed 3× with PBS and then filled with 90 μL of 1×PBS. Fluorescence readings were taken on an M5 Spectramax Spectrophotometer (Molecular Devices) at excitation/emission wavelengths of 335 nm/490 nm respectively.
Binding assays were done in a 96-well high binding plate, black with a clear bottom (Costar). Collagen was compared to untreated wells and BSA coated wells. Collagen and BSA were immobilized at 37° C. for 1 hr by incubating 90 μL/well at concentrations of 2 mg/mL in 10 mM HCl and 1×PBS respectively. […]
Wells were preincubated with DS at 37° C. for 30 min to eliminate nonspecific binding of DS to collagen. […] Fluorescence readings were taken on an M5 Spectramax Spectrophotometer (Molecular Devices) at excitation/emission wavelengths of 335 nm/490 nm respectively.
The fluorescence binding assays described for DS-ZSILY was performed with peptide sequence ZSYIRIADTNITGC (ZDc13).

collagen [2] = assay: SILY binding to collagen (Biacore surface plasmon resonance)
Experimental: Biacore studies were performed on a Biacore 2000 using a CM-3 chip (Biacore, Inc., Piscataway, N.J.). The CM-3 chip is coated with covalently attached carboxymethylated dextran, which allows for attachment of the substrate collagen via free amine groups. Flow cells (FCs) 1 and 2 were used, with FC-1 as the reference cell and FC-2 as the collagen immobilized cell. Each FC was activated with EDC-NHS, and 1500RU of collagen was immobilized on FC-2 by flowing 1 mg/mL collagen in sodium acetate, pH 4, buffer at 5 μL/min for 10 min. Unreacted NHS-ester sites were capped with ethanolamine; the control FC-1 was activated and capped with ethanolamin.
To determine peptide binding affinity, SILY was dissolved in 1×HBS-EP buffer (Biacore) at varying concentrations from 100 uM to 1.5 μm in 2-fold dilutions. […] The first 10 injections were buffer injections, which help to prime the system, followed by randomized sample injections, run in triplicate. Analysis was performed using BIAevaluation software (Biacore).

Type I collagen gels = molecular target: T1, Type I collagen gels (Bos taurus, UniProt P02453+P02465); assay: Cryo-SEM of type I collagen gels (fibril diameter, sheet distance, fibril density); conditions: for Fibril diameter: Example 29, images at 20,000×, α=0.05
T1 construct: purchased Inamed, Freemont, Calif; (Nutragen)
T1 sequence (P02453 162-1217 limits assumed): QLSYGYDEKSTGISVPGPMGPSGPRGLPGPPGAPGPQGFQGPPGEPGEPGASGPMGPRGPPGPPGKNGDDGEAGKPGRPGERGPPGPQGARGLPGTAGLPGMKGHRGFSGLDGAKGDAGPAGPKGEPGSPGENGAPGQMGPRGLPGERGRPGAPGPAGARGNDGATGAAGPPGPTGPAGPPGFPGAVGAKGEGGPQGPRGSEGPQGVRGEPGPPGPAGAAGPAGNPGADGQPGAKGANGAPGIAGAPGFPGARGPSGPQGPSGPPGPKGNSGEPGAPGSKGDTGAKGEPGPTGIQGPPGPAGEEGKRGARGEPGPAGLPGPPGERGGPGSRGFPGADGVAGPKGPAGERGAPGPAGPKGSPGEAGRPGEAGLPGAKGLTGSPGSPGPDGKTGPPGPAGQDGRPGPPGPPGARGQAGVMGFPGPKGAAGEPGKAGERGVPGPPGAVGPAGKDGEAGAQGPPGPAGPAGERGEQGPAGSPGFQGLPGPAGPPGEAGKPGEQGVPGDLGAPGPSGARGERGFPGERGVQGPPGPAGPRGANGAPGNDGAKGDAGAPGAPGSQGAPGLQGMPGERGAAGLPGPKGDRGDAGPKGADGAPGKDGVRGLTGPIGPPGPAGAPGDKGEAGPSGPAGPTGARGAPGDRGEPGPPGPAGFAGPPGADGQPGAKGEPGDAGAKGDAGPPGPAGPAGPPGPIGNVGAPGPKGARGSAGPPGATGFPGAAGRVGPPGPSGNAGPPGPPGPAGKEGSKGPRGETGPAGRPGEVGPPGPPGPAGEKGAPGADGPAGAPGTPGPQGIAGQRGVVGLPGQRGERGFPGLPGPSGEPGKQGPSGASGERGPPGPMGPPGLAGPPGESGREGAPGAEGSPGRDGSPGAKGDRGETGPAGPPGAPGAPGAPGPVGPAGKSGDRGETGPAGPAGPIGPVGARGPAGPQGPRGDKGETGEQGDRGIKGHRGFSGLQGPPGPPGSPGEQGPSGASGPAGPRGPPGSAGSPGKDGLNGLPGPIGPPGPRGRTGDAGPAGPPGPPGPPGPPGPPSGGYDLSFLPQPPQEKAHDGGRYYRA
T1 sequence (P02465 80-1117 limits assumed): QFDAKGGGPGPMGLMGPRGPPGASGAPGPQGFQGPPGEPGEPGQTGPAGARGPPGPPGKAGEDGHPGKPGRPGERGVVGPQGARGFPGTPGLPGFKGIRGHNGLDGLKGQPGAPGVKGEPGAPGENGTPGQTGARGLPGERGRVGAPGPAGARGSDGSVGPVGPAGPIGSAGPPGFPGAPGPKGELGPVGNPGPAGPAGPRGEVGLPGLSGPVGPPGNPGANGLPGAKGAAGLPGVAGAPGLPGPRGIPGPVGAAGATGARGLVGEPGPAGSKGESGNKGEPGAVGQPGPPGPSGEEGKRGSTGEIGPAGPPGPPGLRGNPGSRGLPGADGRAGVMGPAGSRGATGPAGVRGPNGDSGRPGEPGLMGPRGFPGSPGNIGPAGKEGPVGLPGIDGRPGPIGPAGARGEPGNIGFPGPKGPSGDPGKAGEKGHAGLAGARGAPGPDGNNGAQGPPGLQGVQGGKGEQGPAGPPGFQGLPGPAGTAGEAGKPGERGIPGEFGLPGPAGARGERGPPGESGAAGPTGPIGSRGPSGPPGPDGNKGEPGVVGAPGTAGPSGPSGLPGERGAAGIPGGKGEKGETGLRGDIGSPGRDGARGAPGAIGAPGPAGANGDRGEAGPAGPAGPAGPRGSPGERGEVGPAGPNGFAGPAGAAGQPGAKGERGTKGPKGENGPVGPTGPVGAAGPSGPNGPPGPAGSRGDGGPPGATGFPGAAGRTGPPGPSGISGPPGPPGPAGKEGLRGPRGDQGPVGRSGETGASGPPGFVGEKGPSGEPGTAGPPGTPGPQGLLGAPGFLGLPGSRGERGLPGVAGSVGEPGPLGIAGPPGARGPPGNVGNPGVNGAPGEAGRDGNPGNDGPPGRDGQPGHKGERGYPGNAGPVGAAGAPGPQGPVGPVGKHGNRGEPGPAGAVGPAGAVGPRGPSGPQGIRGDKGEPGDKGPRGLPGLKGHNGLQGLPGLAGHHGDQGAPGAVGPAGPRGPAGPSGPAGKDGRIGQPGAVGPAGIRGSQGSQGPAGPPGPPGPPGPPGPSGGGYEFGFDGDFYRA
Experimental: (§1) Gels were made with Nutragen collagen (Inamed, Freemont, Calif.) at a final concentration of 4 mg/mL collagen. Nutragen stock is 6.4 mg/mL in 10 mM HCl. Gel preparation was performed on ice, and fresh samples were made before each test. The collagen solution was adjusted to physiologic pH and salt concentration, by adding appropriate volumes of 10×PBS (phosphate buffered saline), 1×PBS, and 1M NaOH. For most experiments, samples of DS, decorin, DS-SILY, or DS-SYIR were added at a 10:1 collagen:sample molar ratio by a final 1×PBS addition (equal volumes across treatments) in which the test samples were dissolved at appropriate concentrations. In this way, samples are constantly kept at pH 7.4 and physiologic salt concentration. Collagen-alone samples received a 1×PBS addition with no sample dissolved. Fibrillogenesis will be induced by incubating neutralized collagen solutions at 37° C. overnight in a humidified chamber to avoid dehydration. Gel solutions with collagen:sample molar ratios of other than 10:1 were prepared similarly.
Gels for cryo-SEM were formed, as in EXAMPLE 16, directly on the SEM stage and incubated at 37° C. overnight. The stages were then secured in a cryo-holder and plunged into liquid nitrogen slush. Samples were then transferred to a Gatan Alto 2500 pre-chamber cooled to −170° C. under vacuum. A free-break surface was created with a cooled scalpel, and each sample evaporated under sublimation conditions for 20 min. The sample was coated by platinum sputter coating for 120 s. […] Fibril diameter was calculated using ImageJ software (NIH) measuring individual fibrils by hand (drawing a line across fibrils and measuring its length after properly setting the scale). There were 3 observers, 3 separate images per treatment, 10 fibrils recorded per image giving a total of 90 measurements per treatment. Sheet distance was calculated using ImageJ, again measuring by hand. […]
Using a modification of EXAMPLE 21 fibril diameters were measured by cryo-SEM. Fibril diameters from cryo-SEM images taken at 20,000× were measured using ImageJ software (NIH). At least 45 fibrils were measured for each treatment. […]
Collagen gels were formed in the presence of each additive at a 10:1 molar ratio, as described in EXAMPLE 16, directly on the SEM stage, processed, and imaged as described. Images at 10,000× were analyzed for fibril density calculations. Images were converted to 8-bit black and white, and threshold values for each image were determined using ImageJ software (NIH). […] The ratio of white to black area was calculated using MatLab software. All measurements were taken in triplicate and thresholds were determined by an observer blinded to the treatment.

[3] = tested on: Human aortic smooth muscle cells; assay: Collagen remodeling: hydroxyproline content in cell medium; format: cell-based; conditions: cultures up to 30 days
Experimental: Following a method by Grassl, et al. (Grassl, et al., Journal of Biomedical Materials Research 2002, 60, (4), 607-612), which is herein incorporated in its entirety, collagen gels with or without synthetic PG mimics were formed as described in EXAMPLE 16. Human aortic smooth muscle cells (Cascade Biologics, Portland, Oreg.) were seeded within collagen gels by adding 4×10^6 cells/mL to the neutralized collagen solution prior to incubation. The cell-collagen solutions were pipetted into an 8-well Lab-Tek chamber slide and incubated in a humidified 37° C. and 5% CO2 incubator. After gelation, the cell-collagen gels will be covered with 1 mL Medium 231 as prescribed by Cascade. Every 3-4 days, the medium was removed from the samples and the hydroxyproline content measured by a standard hydroxyproline assay (Reddy, 1996).
To measure degraded collagen in the supernatant medium, the sample was lyophilized, the sample hydrolyzed in 2M NaOH at 120° C. for 20 min. After cooling, free hydroxyproline was oxidized by adding chloramine-T (Sigma) and reacting for 25 min at room temperature. Ehrlich's aldehyde reagent (Sigma) was added and allowed to react for 20 min at 65° C. and followed by reading the absorbance at 550 nm on an M-5 spectrophotometer (Molecular Devices). […] Cultures were incubated for up to 30 days and three samples of each treatment measured. […]

collagen [4] = molecular target: T2, collagen (Bos taurus, UniProt P02453+P02465); assay: Collagen fibrillogenesis by turbidity (absorbance at 313 nm); format: biochemical; conditions: 1:1 collagen:additive molar ratio
T2 construct: purchased Inamed, Freemont, Calif; (Nutragen)
T2 sequence (P02453 162-1217 limits assumed): as the sequence (P02453 162-1217 limits assumed) above
T2 sequence (P02465 80-1117 limits assumed): as the sequence (P02465 80-1117 limits assumed) above
Experimental: as §1
Collagen fibrillogenesis was monitored by measuring turbidity related absorbance at 313 nm providing information on rate of fibrillogenesis and fibril diameter. […] A SpectraMax M5 at 37° C. was used to measure absorbance at 313 nm at 30 s intervals for 6 hours. […]

[5] = tested on: Human coronary artery smooth muscle cells (HCA SMC); assay: Gel compaction by cells seeded in collagen gels; format: cell-based
Experimental: Human coronary artery smooth muscle cells (HCA SMC) (Cascade Biologics) were cultured in growth medium (Medium 231 supplemented with smooth muscle growth factor). Cells from passage 3 were used for all experiments. Differentiation medium (Medium 231 supplemented with 1% FBS and 1× pen/strep) was used for all experiments unless otherwise noted.
Collagen gels were prepared with each additive as described with the exception that the 1×PBS example addition was omitted to accommodate the addition of cells in media. After incubating on ice for 30 min, HCA SMCs in differentiation medium were added to the gel solutions to a final concentration of 1×10^6 cells/mL. Gels were formed in quadruplicate in 48-well non-tissue culture treated plates (Costar) for 6 hrs before adding 500 μL/well differentiation medium. Gels were freed from the well edges after 24 hrs. Medium was changed every 2-3 days and images for compaction were taken at the same time points using a Gel Doc System (Bio-Rad). The cross-sectional area of circular gels correlating to degree of compaction was determined using ImageJ software (NIH). Gels containing no cells were used as a negative control and cells in collagen gels absent additive were used as a positive control. By day 10 all gels had compacted to approximately 10% of the original gel area, and differences between additives were small.

Molecule: DS-Z-SILY: dermatan sulfate conjugated to dansyl-modified peptide Z-SILY (Dansyl-GRRANAALKAGELYKSILYGC([PDPH-oxidized dermatan sulfate])-NH2)
Specific binding to collagen-treated wells (collagen [1]): binds specifically to the collagen-treated wells over BSA and untreated wells

Reversibility of binding to collagen (collagen [2]; association/disassociation curves, FIG. 3): binds reversibly with collagen
Kd (collagen [2]; calculated from the on-off binding kinetics, collagen immobilized on CM-3 chip): 1.2 µM
Fibril density (ratio of fibril containing area to void space) (Type I collagen gels; 10:1 collagen:additive, images at 10,000×): significantly greater fibril density
Fibril diameter (Type I collagen gels): decrease in fibril diameter
Molecule: RRANAALKAGELYKSILYGC
Collagen degradation by hydroxyproline content in cell medium [3]: greater collagen degradation compared to collagen alone

Fibril diameter (Type I collagen gels): does not affect fibril diameter
Molecule: SYIRIADTNITGC [Dc13, Dc13 peptide]
Effect on fibrillogenesis (collagen [4]): little effect on fibrillogenesis compared to collagen alone
Collagen degradation by hydroxyproline content in cell medium [3]: greater collagen degradation compared to collagen alone

Molecule: DS-ZDc13: dermatan sulfate conjugate of ZSYIRIADTNITGC (ZDc13)
Specific binding to collagen-treated wells (collagen [1]): binds specifically to the collagen surface in a dose-dependent manner

B1: Decorin: proteoglycan known to influence collagen fibrillogenesis (protein, UniProt P07585 31-359, looked up)
Decorin: DEASGIGPEVPDDRDFEPSLGPVCPFRCQCHLRVVQCSDLGLDKVPKDLPPDTTLLDLQNNKITEIKDGDFKNLKNLHALILVNNKISKVSPGAFTPLVKLERLYLSKNQLKELPEKMPKTLQELRAHENEITKVRKVTFNGLNQMIVIELGTNPLKSSGIENGAFQGMKKLSYIRIADTNITSIPQGLPPSLTELHLDGNKISRVDAASLKGLNNLAKLGLSFNSISAVDNGSLANTPHLRELHLDNNKLTRVPGGLAEHKYIQVVYLHNNNISVVGSSDFCPPGHNTKKASYSGVSLFSNPVQYWEIQPSTFRCVYVRSAIQLGNYK
Fibril diameter (Type I collagen gels): significantly decrease fibril diameter over collagen or collagen+dermatan sulfate
Gel compaction, statistical significance ([5]; Day 7): significant against all samples
Gel compaction, statistical significance ([5]; Days 3 and 5): significant relative to collagen and DS
